Measurements from US20250206773A1, “FORMS AND COMPOSITIONS OF SODIUM CHENODEOXYCHOLATE” (Syntis Bio, Inc., priority 2022, published 2025).
Each block holds one molecule with its values, some of them ahead of it.

Experiments:
Format in all cases: physicochemical
[1] = Storage of screening solids at RT, XRPD after storage
Protocol: Form S2 was obtained from experiment VDS05 with EtOH after 12 days of diffusion at 50° C. […] The HPLC purity of the tested material was 92.1% at 212 nm. TG/DSC analysis of this material was consistent with that obtained from experiments SAS48, SDGR01, and SDGR07. XRPD analysis of this material is shown in FIG. 33, and the corresponding data summarized in Table S2: Form S8 was obtained in mixture with starting material ([…]) from experiment VDS12 with MEK after 12 days of diffusion at 50° C. […] The HPLC purity of the tested material was 93.7% at 212 nm. An XRPD spectrum of the material from experiment VDS12 is shown in FIG. 34A, as compared to NaCDC Form B, and the corresponding data are summarized in Table S8: The precipitate that formed in the water solution in the presence of acetone (as anti-solvent) was stored at RT for up to 3 weeks before it was subjected to thermal analysis. In this case, the majority of ASDS03 solid was dried at RT on filter paper up to 2 h and after that the recovered material was analyzed by XRPD. […] (Tonset) was observed. […] The precipitates that formed in the water solution in the presence of acetonitrile (as anti-solvent) from experiments ASDS04 and ASDS08 were stored at RT up to 24 days before being subjected to thermal analysis. In this case, the majority of solids from experiments ASDS04 and ASDS08 were dried at RT on filter paper for 1-2 h, and after that the recovered materials were analyzed by XRPD. […] The corresponding data for the initial material obtained from experiment […]) are summarized below: The precipitate that formed into the TFE solution in the presence of MTBE (as anti-solvent) was stored at RT for 22 days before being subjected to thermal analysis. In this case, the majority of the material from experiment ASDS19 was dried at RT on filter paper up to 2 h, and after that the recovered material was analyzed by XRPD. […] Considering that Form S12 was obtained as mixture with amorphous phase and with low crystallinity, there is a possibility that Form S12 is the same as Form S15. The XRPD data from experiment ASDS19 before storage for 22 days is summarized in Table S12, and the XRPD data from experiment ASDS19 after storage for 22 days is summarized in Table S15. The precipitate that formed into the TFE solution in the presence of DIPE (as anti-solvent) was stored at RT for 22 days before being subjected to thermal analysis. In this case, the majority of material obtained from experiment ASDS16 was dried at RT on filter paper up to 2 h, and after that, the recovered material was analyzed by XRPD. […] The precipitate that formed into the water solution in the presence of acetone (as anti-solvent) was stored at RT for 2 weeks before being subjected to thermal analysis. In this case, the majority of material obtained from experiment RAS11 was dried at RT on filter paper for 1-2 h, and after that the recovered material was analyzed by XRPD. […] The precipitate that formed into the TFE solution in the presence of iPrOAC (as anti-solvent) was stored at RT for 2 weeks before being subjected to thermal analysis. In this case, the majority of material from experiment RAS34 dried at RT on filter paper for 1-2 h, and after that the recovered material was analyzed by XRPD. […] The precipitate that formed into the TFE solution in the presence of EtOAc (as anti-solvent) was stored at RT for 2 weeks before being subjected to thermal analysis. In this case, the majority of material obtained from experiment RAS33 was dried at RT on filter paper for 1-2 h, and after that the recovered material was analyzed by XRPD. […] The precipitate that formed into the TFE solution in the presence of MTBE (as anti-solvent) was stored at RT for 2 weeks before being subjected to thermal analysis. In this case, the majority of the material obtained from experiment RAS36 that had been stored for 2 weeks was dried at RT on filter paper for 1-2 h, and after that the recovered material was analyzed by XRPD.

[2] = Intrinsic dissolution, USP rotating disk apparatus
Protocol: For the intrinsic dissolution studies, the following HPLC method was used: [table] Intrinsic dissolution profiles of NaCDC Form A and Form B were determined from a drug disk of constant surface area using a USP rotating disk apparatus in phosphate buffer (pH 7.4) at 37° C. […] A typical apparatus consisted of a punch and a die, whose base is attached to a surface plate. […] The punch was then inserted in the die cavity and the test material was compressed with a hydraulic press. A non-disintegrating compact of the material was formed in the die cavity with a single face of defined area exposed on the bottom of the die. The die assembly was then attached to a shaft with a holder and the surface plate was removed. The shaft holding the die assembly was positioned into the dissolution medium at a distance not less than 1.0 cm from the bottom of the vessel. In this procedure, fluid flow was generated by the rotation of the die. The amount of material dissolved was measured as a function of time. In particular, the cumulative amount dissolved at each time point was corrected for losses due to sampling. […] Method parameters are summarized below: [table]

[3] = Exposure to moist air (RH 95%, room temperature), XRPD before/after; details: 15-20 hours at 95% humidity
Protocol: FIG. 4 is a series of XRPD patterns, showing NaCDC Form A before (thick line) and after (thin line) 15 hours of exposure to RH 95% at room temperature. FIG. 8 is a series of XRPD patterns, showing NaCDC Form B before (thick line) and after (thin line) 15 hours of exposure to RH 95% at room temperature.

[4] = Dynamic vapor sorption (DVS) hygroscopicity; details: 25° C.
Protocol: DVS measurements were performed with a SMS—DVS Intrinsic. The sample size was about 50 mg, accurately weighed. The measurement was performed at 25° C., the relative humidity (RH) range investigated was 40-90-0-90% RH with 10% RH steps. After each RH change, the mass of the sample was allowed to stabilize (waiting time 10 to 60 minutes, stabilization criterion ≤0.002 g for 10 minutes). The hygroscopicity of the sample was calculated as follows: [formula] • where: • W1: weight of sample at the start of the experiment (25° C. and 40% RH) • W2: weight of sample at 25° C. and 80% RH in the first sorption cycle High Pressure Liquid Chromatography (HPLC)

SMILES: C[C@H](CCC(=O)[O-])[C@H]1CC[C@H]2[C@@H]3[C@H](O)C[C@@H]4C[C@H](O)CC[C@]4(C)[C@H]3CC[C@]12C.[Na+] [Form S3, sodium chenodeoxycholate]
XRPD form after storage ([1]; RAS34 precipitate in TFE/iPrOAc, stored at RT for 2 weeks): remained unchanged

SMILES: C[C@H](CCC(=O)[O-])[C@H]1CC[C@H]2[C@@H]3[C@H](O)C[C@@H]4C[C@H](O)CC[C@]4(C)[C@H]3CC[C@]12C.[Na+] [Form S9-b, sodium chenodeoxycholate]
XRPD form after storage ([1]; ASDS08 precipitate in water/acetonitrile, stored at RT 23 days): transformed into a form similar to Form S9-a

SMILES: C[C@H](CCC(=O)[O-])[C@H]1CC[C@H]2[C@@H]3[C@H](O)C[C@@H]4C[C@H](O)CC[C@]4(C)[C@H]3CC[C@]12C.[Na+] [Form S8, sodium chenodeoxycholate]
form on storage ([1]; VDS12 material (MEK vapor, 50° C.), mixture with NaCDC Form B, storage at RT): remained stable

SMILES: C[C@H](CCC(=O)[O-])[C@H]1CC[C@H]2[C@@H]3[C@H](O)C[C@@H]4C[C@H](O)CC[C@]4(C)[C@H]3CC[C@]12C.[Na+] [Form S6, sodium chenodeoxycholate]
XRPD form after storage ([1]; RAS33 precipitate in TFE/EtOAc, stored at RT for 2 weeks): transformed into Form S1

SMILES: C[C@H](CCC(=O)[O-])[C@H]1CC[C@H]2[C@@H]3[C@H](O)C[C@@H]4C[C@H](O)CC[C@]4(C)[C@H]3CC[C@]12C.[Na+] [Form S2, sodium chenodeoxycholate]
form on storage ([1]; VDS05 material (EtOH vapor, 12 days, 50° C.), storage conditions at RT): remained stable

SMILES: C[C@H](CCC(=O)[O-])[C@H]1CC[C@H]2[C@@H]3[C@H](O)C[C@@H]4C[C@H](O)CC[C@]4(C)[C@H]3CC[C@]12C.[Na+] [Form A, sodium chenodeoxycholate]
solid form after compression (XRPD) ([2]; 2 tons for 2 minutes): no change in solid form
IDR (intrinsic dissolution rate) ([2]; USP phosphate buffer pH 7.4, 37° C., 100 rpm, disk 0.5024 cm^2): 0.6959 mg · min^−1 · cm^−2
effect of exposure to moist air (XRPD) [3]: partial amorphization and loss of crystallinity
hygroscopicity by DVS [4]: hygroscopic
weight change in the first sorption cycle (DVS) ([4]; 40% RH to 80% RH): 14.1%

SMILES: C[C@H](CCC(=O)[O-])[C@H]1CC[C@H]2[C@@H]3[C@H](O)C[C@@H]4C[C@H](O)CC[C@]4(C)[C@H]3CC[C@]12C.[Na+] [Form S1, sodium chenodeoxycholate]
XRPD form after storage ([1]; ASDS03 precipitate in water/acetone, stored at RT up to 3 weeks, dried on filter paper): transformed into Form S14
XRPD form after storage ([1]; RAS11 precipitate in water/acetone, stored at RT for 2 weeks): high tendency of amorphization

Now from value to molecule:

XRPD form after storage ([1]; ASDS19 precipitate in TFE/MTBE, stored at RT for 22 days): transformed into Form S15
SMILES: C[C@H](CCC(=O)[O-])[C@H]1CC[C@H]2[C@@H]3[C@H](O)C[C@@H]4C[C@H](O)CC[C@]4(C)[C@H]3CC[C@]12C.[Na+] [Form S12, sodium chenodeoxycholate]

XRPD form after storage ([1]; ASDS04 precipitate in water/acetonitrile, stored at RT 22 days): remained unchanged
SMILES: C[C@H](CCC(=O)[O-])[C@H]1CC[C@H]2[C@@H]3[C@H](O)C[C@@H]4C[C@H](O)CC[C@]4(C)[C@H]3CC[C@]12C.[Na+] [Form S9-a, sodium chenodeoxycholate]

XRPD form after storage ([1]; ASDS16 precipitate in TFE/DIPE, stored at RT for 22 days): remained unchanged
SMILES: C[C@H](CCC(=O)[O-])[C@H]1CC[C@H]2[C@@H]3[C@H](O)C[C@@H]4C[C@H](O)CC[C@]4(C)[C@H]3CC[C@]12C.[Na+] [Form S13, sodium chenodeoxycholate]

XRPD form after storage ([1]; RAS36 precipitate in TFE/MTBE, stored at RT for 2 weeks): transformed into Form S14
SMILES: C[C@H](CCC(=O)[O-])[C@H]1CC[C@H]2[C@@H]3[C@H](O)C[C@@H]4C[C@H](O)CC[C@]4(C)[C@H]3CC[C@]12C.[Na+] [Form S15, sodium chenodeoxycholate]
